Assay results reported in PMC7156458, “Synthetic biology based construction of biological activity-related library of fungal decalin-containing diterpenoid pyrones” (Nature Communications, 2020).

Legend:
Aβ42 = Aβ42 (Homo sapiens, UniProt P05067); assay: LC/Q Tof-MS detection of Aβ42 adducts; type: binding; details: 1 h incubation at room temperature
Protocol: To further analyse the inhibitory mechanism, we subjected a mixture of Aβ42 and 21 after 1 h of incubation at room temperature to liquid chromatography/quadrupole time-of-flight mass spectrometry (LC/Q Tof-MS). […] To identify the specific amino acids involved in the interaction of 21 with the Aβ monomer, we performed LC–MS/MS analysis with collision-induced dissociation (CID) using E22P, M35ox-Aβ9-35 as a toxic conformer surrogate[66],[67]. Based on a large number of fragmented b ions and y ions, Lys16 in Aβ42 ([…]) seemed to be one of the target amino acid residues of 21 (Supplementary Fig. 50).
Device; UPLC H-class with Xevo G2-S Qtof (Waters) 3.44e7 […]
in 50% CH3CN containing 0.01%NH4OH, incubated for 1 h at 23 °C […]
Capillary voltage; 3.0 kv 16.07
WT-A!42+ compound 21 1: TOF MS ES+
ْMeasurement conditionٓ 2.25e7
Device; UPLC H-class with Xevo G2-S Qtof (Waters)
Capillary voltage; 3.0 kv
WT-A!42 + compound 21 Mass spectrum […]
Supplementary Fig. 48. Comparison of LC-MS data, a, compound 20 was incubated with wt-Aβ42 and analyzed by LC-MS, whereas no peak originated from their adducts was observed. b, compound 21 was incubated with Aβ42 and analyzed by LC-MS, and their Michael adducts were observed around 9 min. c, ESI mass spectra of the Michael adducts between Aβ42 and compound 21. d, Deconvolution Mass spectrum of a Michael adduct observed at 8.944 min. […]

SNB-75 = assay: cells; set-up: JFCR39 human cancer cell line panel, antiproliferative dose response (optical density), GI50; details: Homo sapiens, SNB-75
Protocol: (§1) Initially, we evaluated new DDP analogues for their antiproliferative activities across the panel of 39 human cancer cell lines, JFCR39[50],[51]. […] Purified DDPs was dissolved in DMSO (Specially Prepared Reagent, Nuclease and Protease tested, NACALAI, 09659-14) to prepare 5 mM solutions. The Each DDP solution (5 mM) was used for antiproliferative effects on cancer cell lines (Supplementary Notes 23, 24, 25, 26), biological activity against Drosophila (Supplementary Note 27), anti-HIV assay (Supplementary Note 28) and screening of amyloid Ab42 aggregation inhibitors (Supplementary Notes 29).

RXF-631L = assay: cells; set-up: JFCR39 human cancer cell line panel, antiproliferative dose response (optical density), GI50; details: RXF-631L
Protocol: as §1

HCC2998 = assay: cells; set-up: JFCR39 human cancer cell line panel, antiproliferative dose response (optical density), GI50; details: Homo sapiens, HCC 2998
Protocol: as §1

SF-295 = assay: cells; set-up: JFCR39 human cancer cell line panel, antiproliferative dose response (optical density), GI50; details: Homo sapiens, SF-295
Protocol: as §1

MKN-A = assay: cells; set-up: JFCR39 human cancer cell line panel, antiproliferative dose response (optical density), GI50
Protocol: as §1

HBC-4 = assay: cells; set-up: JFCR39 human cancer cell line panel, antiproliferative dose response (optical density), GI50; details: HBC4
Protocol: as §1

NCI-H23 = assay: cells; set-up: JFCR39 human cancer cell line panel, antiproliferative dose response (optical density), GI50; details: Homo sapiens, NCI-H23
Protocol: as §1

St-4 = assay: cells; set-up: JFCR39 human cancer cell line panel, antiproliferative dose response (optical density), GI50; details: Homo sapiens, St-4
Protocol: as §1

DU-145 = assay: cells; set-up: JFCR39 human cancer cell line panel, antiproliferative dose response (optical density), GI50; details: Homo sapiens, DU-145
Protocol: as §1

LOX-IMVI = assay: cells; set-up: JFCR39 human cancer cell line panel, antiproliferative dose response (optical density), GI50; details: Homo sapiens, LOX IMVI
Protocol: as §1

DMS114 = assay: cells; set-up: JFCR39 human cancer cell line panel, antiproliferative dose response (optical density), GI50; details: Homo sapiens, DMS-114
Protocol: as §1

U251 = assay: cells; set-up: JFCR39 human cancer cell line panel, antiproliferative dose response (optical density), GI50; details: Homo sapiens, U-251
Protocol: as §1

OVCAR-3 = assay: cells; set-up: JFCR39 human cancer cell line panel, antiproliferative dose response (optical density), GI50; details: Homo sapiens, OVCAR-3
Protocol: as §1

MKN1 = assay: cells; set-up: JFCR39 human cancer cell line panel, antiproliferative dose response (optical density), GI50; details: Homo sapiens, MKN-1
Protocol: as §1

MDA-MB-231 = assay: cells; set-up: JFCR39 human cancer cell line panel, antiproliferative dose response (optical density), GI50; details: Homo sapiens, MDA-MB-231
Protocol: as §1

DMS273 = assay: cells; set-up: JFCR39 human cancer cell line panel, antiproliferative dose response (optical density), GI50; details: Homo sapiens, DMS-273
Protocol: as §1

KM-12 = assay: cells; set-up: JFCR39 human cancer cell line panel, antiproliferative dose response (optical density), GI50; details: Homo sapiens, KM12
Protocol: as §1

SNB-78 = assay: cells; set-up: JFCR39 human cancer cell line panel, antiproliferative dose response (optical density), GI50; details: Homo sapiens, SNB-78
Protocol: as §1

NCI-H522 = assay: cells; set-up: JFCR39 human cancer cell line panel, antiproliferative dose response (optical density), GI50; details: Homo sapiens, NCI-H522
Protocol: as §1

MCF-7 = assay: cells; set-up: JFCR39 human cancer cell line panel, antiproliferative dose response (optical density), GI50; details: Homo sapiens, MCF7
Protocol: as §1

Sequence of Aβ42 (P05067 672-713): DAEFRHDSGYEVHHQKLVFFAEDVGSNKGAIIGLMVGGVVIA

GI50 (HCC2998) [µM] | GI50 (MKN-A) [µM] | GI50 (NCI-H23) [µM] | GI50 (DU-145) [µM] | GI50 (U251) [µM] | GI50 (OVCAR-3) [µM] | GI50 (MKN1) [µM] | GI50 (MDA-MB-231) [µM] | GI50 (NCI-H522) [µM] | Structure (SMILES) | Aβ42 adduct formation (Aβ42) | GI50 (SNB-75) [µM] | GI50 (RXF-631L) [µM] | GI50 (SF-295) [µM] | GI50 (HBC-4) [µM] | GI50 (St-4) [µM] | GI50 (LOX-IMVI) [µM] | GI50 (DMS114) [µM] | GI50 (DMS273) [µM] | GI50 (KM-12) [µM] | GI50 (SNB-78) [µM] | other results
– | – | – | – | – | – | – | – | – | C=C1CC[C@@H]2[C@](C)(CC[C@H]3O[C@H](C=C(C)C)C[C@@]23C)[C@@H]1Cc1c(OC)oc(CO)c(C(=O)OC)c1=O [Compound 21] | adducts were detected | – | – | – | – | – | – | – | – | – | – | –
12.7 | 0.573 | 0.668 | 12.2 | 13.5 | 2.68 | 12.2 | 11.6 | 0.754 | C=C1CC[C@H]2[C@]3(C)C[C@H](C=C(C)C)O[C@H]3CC[C@]2(C)[C@@H]1Cc1c(OC)oc(C)c(C)c1=O [Compound 24] | – | 13.9 | 10.9 | 2.21 | 13.4 | 12.2 | 0.929 | 0.189 | 0.484 | 9.49 | 12.9 | GI50 (MCF-7): 1.53 µM
– | – | – | – | – | – | – | – | – | C=C1CC[C@@H]2[C@](C)(CC[C@H]3O[C@H](C=C(C)C)C[C@@]23C)[C@@H]1Cc1c(OC)oc(CO)c(C)c1=O [Compound 20] | no such adduct was found | – | – | – | – | – | – | – | – | – | – | –
12 | 0.318 | 0.228 | 12.3 | 13.2 | 1.47 | 13.2 | 11.9 | 0.721 | C=C1CCC2C3(C)CC(C=C(C)C)OC3CCC2(C)C1Cc1c(OC)oc(C)c(C)c1=O (stereo not drawn) [Compound 23] | – | 13.3 | 10.2 | 1.12 | 13.2 | 12.4 | 0.604 | 0.0552 | 0.265 | 10.3 | 12.3 | GI50 (MCF-7): 1.01 µM
